Data published in patent publication US20200369728A1, “PEPTIDOMIMETIC MACROCYCLES AND USES THEREOF” (Aileron Therapeutics, Inc., priority 2015, published 2020).
Bridge positions count the residues as written; N and C are the ends. Square brackets hold non-standard residues; d marks the D form. Peptide text beside a SMILES is read from it. R8 = C=CCCCCCC[C@@](C)(N)C(=O)O; S5 = C=CCCC[C@](C)(N)C(=O)O

Columns and labels:
[1] = test system: Caspase 3; assay: Caspase 3 detection assay in SJSA1 cells; assay type: cell-based; conditions: SJSA1, 48 h, Caspase 3 activation over DMSO-treated cells
[2] = test system: SJSA-1 cells; assay: Cell lysis by peptidomimetic macrocycles (LDH release); assay type: cell-based; conditions: SJSA-1, 1 h
How it was run: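 Membrane lysis measured as supernatant LDH after a 1 h, 37 °C exposure of SJSA-1 cells, held in RPMI with 1% FBS, to macrocycles at final 6.25-50 μM with 0.5% DMSO. Lytic references were 10 μM melittin and 1% Triton X-100; DMSO alone served as non-lytic control.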

SMILES: CC(=O)N[C@@H](CC(C)C)C(=O)N[C@H](C(=O)N[C@@H](Cc1ccccc1)C(=O)N[C@]1(C)CCCCCCC=CCCC[C@@](C)(C(=O)N[C@@H](C)C(=O)N[C@@H](C)C(=O)N[C@@H](C)C(=O)N[C@@H](C)C(=O)N[C@@H](C)C(=O)N[C@@H](C)C(=O)N[C@H](C)C(N)=O)NC(=O)[C@H](CC(C)C)NC(=O)[C@H](CCC(N)=O)NC(=O)[C@H](C)NC(=O)[C@H](Cc2c[nH]c3ccccc23)NC(=O)[C@H](Cc2ccc(O)cc2)NC(=O)[C@H](C)NC1=O)[C@@H](C)O (single isomer, unassigned) [compound 317]
- caspase 0.3 μM [1]: 3
- caspase 1 μM [1]: 4
- caspase 3 μM [1]: 9
- caspase 10 μM [1]: 26
- caspase 30 μM [1]: 35
- 6.25 μM % Lysed cells (1 h LDH) [2]: 0%
- 25 μM % Lysed cells (1 h LDH) [2]: 0%
- 50 μM % Lysed cells (1 h LDH) [2]: 0%

SMILES: CC(=O)N[C@@H](CC(C)C)C(=O)N[C@H](C(=O)N[C@@H](Cc1ccccc1)C(=O)N[C@]1(C)CCCCCCC=CCCC[C@@](C)(C(=O)N[C@@H](C)C(=O)N[C@@H](C)C(=O)N[C@@H](C)C(=O)N[C@@H](C)C(=O)N[C@@H](C)C(=O)N[C@@H](C)C(=O)N[C@H](C)C(N)=O)NC(=O)[C@H](CC(C)C)NC(=O)[C@H](CCC(N)=O)NC(=O)[C@H](C)NC(=O)[C@H](Cc2c[nH]c3ccccc23)NC(=O)[C@H](Cc2ccc(O)cc2)NC(=O)[C@H](CCC(=O)O)NC1=O)[C@@H](C)O (single isomer, unassigned) [compound 343]
- caspase 0.3 μM [1]: 1
- caspase 1 μM [1]: 1
- caspase 3 μM [1]: 2
- caspase 10 μM [1]: 5
- caspase 30 μM [1]: 29
- 6.25 μM % Lysed cells (1 h LDH) [2]: 0%
- 25 μM % Lysed cells (1 h LDH) [2]: 0%
- 50 μM % Lysed cells (1 h LDH) [2]: 0%

SMILES: CC(=O)N[C@@H](CC(C)C)C(=O)N[C@H](C(=O)N[C@@H](Cc1ccccc1)C(=O)N[C@]1(C)CCCCCCC=CCCC[C@@](C)(C(=O)N[C@@H](C)C(=O)N[C@@H](C)C(=O)N[C@@H](C)C(=O)N[C@@H](C)C(=O)N[C@@H](C)C(=O)N[C@H](C)C(N)=O)NC(=O)[C@H](CC2CCC2)NC(=O)[C@H](CCC(N)=O)NC(=O)[C@H](C)NC(=O)[C@H](Cc2c[nH]c3ccccc23)NC(=O)[C@H](Cc2ccc(O)cc2)NC(=O)[C@H](CCC(=O)O)NC1=O)[C@@H](C)O (single isomer, unassigned) [compound 347]
- caspase 0.3 μM [1]: 2
- caspase 1 μM [1]: 3
- caspase 3 μM [1]: 5
- caspase 10 μM [1]: 8
- caspase 30 μM [1]: 29
- 6.25 μM % Lysed cells (1 h LDH) [2]: 0%
- 25 μM % Lysed cells (1 h LDH) [2]: 0%
- 50 μM % Lysed cells (1 h LDH) [2]: 0%

SMILES: CC[C@H](C)[C@H](NC(=O)[C@H](C)NC(=O)[C@H](CO)NC(=O)[C@]1(C)CCCC=CCCCCCC[C@@](C)(NC(=O)[C@H](Cc2ccccc2)NC(=O)[C@@H](NC(=O)[C@H](CC(C)C)NC(C)=O)[C@@H](C)O)C(=O)N[C@@H](C)C(=O)N[C@@H](Cc2ccc(O)cc2)C(=O)N[C@@H](Cc2c[nH]c3ccccc23)C(=O)N[C@@H](C)C(=O)N[C@@H](CCC(N)=O)C(=O)N[C@@H](CC(C)C)C(=O)N1)C(N)=O [compound 8] (Ac-LTF[R8]AYWAQL[S5]SAI-NH2; staple 4-11)
- caspase 3 μM [1]: 1
- caspase 10 μM [1]: 19
- caspase 30 μM [1]: 25
- 6.25 μM % Lysed cells (1 h LDH) [2]: −1%
- 25 μM % Lysed cells (1 h LDH) [2]: 1%
- 50 μM % Lysed cells (1 h LDH) [2]: 1%

SMILES: CSCC[C@H](NC(=O)[C@H](C)NC(=O)[C@H](C)NC(=O)[C@]1(C)CCCC=CCCCCCC[C@@](C)(NC(=O)[C@H](Cc2ccccc2)NC(=O)[C@@H](NC(=O)[C@H](CC(C)C)NC(C)=O)[C@@H](C)O)C(=O)N[C@@H](C)C(=O)N[C@@H](Cc2ccc(O)cc2)C(=O)N[C@@H](Cc2c[nH]c3ccccc23)C(=O)N[C@@H](C)C(=O)N[C@@H](C)C(=O)N[C@@H](CC(C)C)C(=O)N1)C(=O)N[C@H](C)C(N)=O [compound 72] (Ac-LTF[R8]AYWAAL[S5]AAM[dA]-NH2; staple 4-11)
- caspase 0.3 μM [1]: 1
- caspase 3 μM [1]: 1
- caspase 10 μM [1]: 4
- caspase 30 μM [1]: 10
- 6.25 μM % Lysed cells (1 h LDH) [2]: 2%
- 25 μM % Lysed cells (1 h LDH) [2]: 0%
- 50 μM % Lysed cells (1 h LDH) [2]: 3%

SMILES: CC(=O)N[C@@H](CC(C)C)C(=O)N[C@H](C(=O)N[C@@H](Cc1ccccc1)C(=O)N[C@]1(C)CCCCCCC=CCCC[C@@](C)(C(=O)N[C@@H](CO)C(=O)N[C@H](C(=O)NCC(N)=O)C(C)C)NC(=O)[C@H](CC(C)C)NC(=O)[C@H](CCC(N)=O)NC(=O)[C@H](C)NC(=O)[C@H](Cc2c[nH]c3ccccc23)NC(=O)[C@H](Cc2ccc(O)cc2)NC(=O)[C@H](C)NC1=O)[C@@H](C)O [compound 123] (Ac-LTF[R8]AYWAQL[S5]SVG-NH2; staple 4-11)
- caspase 0.3 μM [1]: 1
- caspase 3 μM [1]: 1
- caspase 10 μM [1]: 6
- caspase 30 μM [1]: 14
- 6.25 μM % Lysed cells (1 h LDH) [2]: −2%
- 25 μM % Lysed cells (1 h LDH) [2]: 5%
- 50 μM % Lysed cells (1 h LDH) [2]: 3%

SMILES: CC(=O)N[C@@H](CCC(=O)O)C(=O)N[C@H](C(=O)N[C@@H](Cc1ccccc1)C(=O)N[C@]1(C)CCCCCCC=CCCC[C@@](C)(C(=O)N[C@@H](CO)C(=O)N[C@H](C(=O)N[C@@H](CO)C(N)=O)C(C)C)NC(=O)[C@H](CC(C)C)NC(=O)[C@H](CCC(N)=O)NC(=O)[C@H](C)NC(=O)[C@H](Cc2c[nH]c3ccccc23)NC(=O)[C@H](Cc2ccc(O)cc2)NC(=O)[C@H](C(C)C)NC1=O)[C@@H](C)O [compound 130] (Ac-ETF[R8]VYWAQL[S5]SVS-NH2; staple 4-11)
- caspase 0.3 μM [1]: 1
- caspase 3 μM [1]: 2
- caspase 10 μM [1]: 6
- caspase 30 μM [1]: 17
- 6.25 μM % Lysed cells (1 h LDH) [2]: 1%
- 25 μM % Lysed cells (1 h LDH) [2]: 0%
- 50 μM % Lysed cells (1 h LDH) [2]: −1%

SMILES: CC[C@H](C)[C@H](NC(=O)[C@H](C)NC(=O)[C@H](C)NC(=O)[C@]1(C)CCCC=CCCCCCC[C@@](C)(NC(=O)[C@H](Cc2ccccc2)NC(=O)[C@@H](NC(=O)[C@H](CC(C)C)NC(C)=O)[C@@H](C)O)C(=O)N[C@@H](C)C(=O)N[C@@H](Cc2c[nH]cn2)C(=O)N[C@@H](Cc2c[nH]c3ccccc23)C(=O)N[C@@H](C)C(=O)N[C@@H](CCC(N)=O)C(=O)N[C@@H](CC(C)C)C(=O)N1)C(=O)N[C@H](C)C(N)=O [compound 170] (Ac-LTF[R8]AHWAQL[S5]AAI[dA]-NH2; staple 4-11)
- caspase 0.3 μM [1]: 1
- caspase 3 μM [1]: 1
- caspase 10 μM [1]: 16
- caspase 30 μM [1]: 20
- 6.25 μM % Lysed cells (1 h LDH) [2]: 2%
- 25 μM % Lysed cells (1 h LDH) [2]: 1%
- 50 μM % Lysed cells (1 h LDH) [2]: −1%

SMILES: CC[C@H](C)[C@H](NC(C)=O)C(=O)N[C@H](C(=O)N[C@@H](Cc1ccccc1)C(=O)N[C@]1(C)CCCCCCC=CCCC[C@@](C)(C(=O)N[C@@H](C)C(=O)N[C@@H](C)C(=O)N[C@H](C(=O)N[C@H](C)C(N)=O)[C@@H](C)CC)NC(=O)[C@H](CC(C)C)NC(=O)[C@H](CCC(N)=O)NC(=O)[C@H](C(C)C)NC(=O)[C@H](Cc2c[nH]c3ccccc23)NC(=O)[C@H](Cc2ccc(O)cc2)NC(=O)[C@H](Cc2ccccc2)NC1=O)[C@@H](C)O [compound 177] (Ac-ITF[R8]FYWVQL[S5]AAI[dA]-NH2; staple 4-11)
- caspase 0.3 μM [1]: 1
- caspase 3 μM [1]: 1
- caspase 10 μM [1]: 8
- caspase 30 μM [1]: 20
- 6.25 μM % Lysed cells (1 h LDH) [2]: −1%
- 25 μM % Lysed cells (1 h LDH) [2]: 0%
- 50 μM % Lysed cells (1 h LDH) [2]: 1%

SMILES: CC(=O)N[C@@H](CC(C)C)C(=O)N[C@H](C(=O)N[C@@H](Cc1ccccc1)C(=O)N[C@]1(C)CCCCCCC=CCCC[C@@](C)(C(=O)N[C@@H](C)C(=O)N[C@@H](Cc2c[nH]cn2)C(=O)N[C@@H](Cc2ccccc2)C(=O)N[C@@H](C)C(N)=O)NC(=O)[C@H](CC(C)C)NC(=O)[C@H](CCC(N)=O)NC(=O)[C@H](C)NC(=O)[C@H](Cc2c[nH]c3ccccc23)NC(=O)[C@H](Cc2c[nH]cn2)NC(=O)[C@H](C)NC1=O)[C@@H](C)O [compound 183] (Ac-LTF[R8]AHWAQL[S5]AHFA-NH2; staple 4-11)
- caspase 0.3 μM [1]: 1
- caspase 3 μM [1]: 1
- caspase 10 μM [1]: 4
- caspase 30 μM [1]: 8
- 6.25 μM % Lysed cells (1 h LDH) [2]: 2%
- 25 μM % Lysed cells (1 h LDH) [2]: 0%
- 50 μM % Lysed cells (1 h LDH) [2]: 3%

SMILES: CC(=O)N[C@@H](CC(C)C)C(=O)N[C@H](C(=O)N[C@@H](Cc1ccccc1)C(=O)N[C@]1(C)CCCCCCC=CCCC[C@@](C)(C(=O)N[C@@H](CO)C(=O)N[C@@H](C)C(=O)N[C@@H](C)C(N)=O)NC(=O)[C@H](CC(C)C)NC(=O)[C@H](C)NC(=O)[C@H](C)NC(=O)[C@H](Cc2c[nH]c3ccccc23)NC(=O)[C@H](Cc2c[nH]cn2)NC(=O)[C@H](C)NC1=O)[C@@H](C)O [compound 197] (Ac-LTF[R8]AHWAAL[S5]SAA-NH2; staple 4-11)
- caspase 0.3 μM [1]: 1
- caspase 3 μM [1]: 1
- caspase 10 μM [1]: 10
- caspase 30 μM [1]: 20
- 6.25 μM % Lysed cells (1 h LDH) [2]: 1%
- 25 μM % Lysed cells (1 h LDH) [2]: −1%
- 50 μM % Lysed cells (1 h LDH) [2]: −2%

SMILES: CC(=O)N[C@@H](CC(C)C)C(=O)N[C@H](C(=O)N[C@@H](Cc1ccccc1)C(=O)N[C@]1(C)CCCCCCC=CCCC[C@@](C)(C(=O)N[C@@H](C)C(=O)N[C@@H](Cc2c[nH]cn2)C(=O)N[C@@H](Cc2ccccc2)C(=O)N[C@@H](C)C(N)=O)NC(=O)[C@H](CC(C)C)NC(=O)[C@H](C)NC(=O)[C@H](C)NC(=O)[C@H](Cc2c[nH]c3ccccc23)NC(=O)[C@H](Cc2ccc(O)cc2)NC(=O)[C@H](C)NC1=O)[C@@H](C)O [compound 204] (Ac-LTF[R8]AYWAAL[S5]AHFA-NH2; staple 4-11)
- caspase 0.3 μM [1]: 1
- caspase 3 μM [1]: 4
- caspase 10 μM [1]: 10
- caspase 30 μM [1]: 10
- 6.25 μM % Lysed cells (1 h LDH) [2]: 4%
- 25 μM % Lysed cells (1 h LDH) [2]: 2%
- 50 μM % Lysed cells (1 h LDH) [2]: 0%
